Data taken from patent US20020137901A1, “Synthesis, and photodynamic therapy-mediated anti-cancer, and other uses of chlorin e6-transferrin” (priority 2001, published 2002).

Tests used:
[1] = tested on: Rat MTLn3 mammary adenocarcinoma cells; test: Low serum growth assay; assay type: cell-based; conditions: αMEM 0.3% FBS, increasing levels of protein, four days
Method: FIG. 2. Effect of chorin e6 on the growth of Rat MTLn3 mammary adenocarcinoma cells. Cells were plated at 2,000 cells/well in 96 well plates in ∝MEM containing 5% FBS. One day after plating, media was changed to ∝MEM containing 0.3% FBS. Increasing levels of human holo-Tf (Native Tf) or human Ce6-Tf (both in PBS) were added to respective wells, in the amount indicated. Four days later, cells were quantitated using a crystal violet stain assay, where A590 correlates with cell number. A: an image of the crystal violet stained plate used in the assay is shown. B: A plot of the absorbances from A. Cell number and is seen to rise as the cells are exposed to increasing levels of native human Tf.
Growth assays: Rat MTLn3 mammary adenocarcinoma cells were plated at 2,000 cells/well in 96 well plates in ∝MEM containing 5% FBS. One day after plating, media was changed to ∝MEM containing 0.3% FBS. Increasing levels of human holo-Tf or human Ce6-Tf (both in PBS) were added to respective wells. Four days later, cells were quantitated using a crystal violet stain assay.

[2] = target: T1, transferrin receptor (Rattus norvegicus, UniProt Q99376); test: Competition of FITC-Tf binding to cell surfaces (Western blot detection); conditions: competitor 1 mg/ml, FITC-Tf 100 μg/ml, 4° C., 2 h
T1 construct: endogenous in cells; host or cells: Rat MTLn3 mammary adenocarcinoma cells (intact monolayers at 4 °C)
T1 sequence (Q99376 whole entry): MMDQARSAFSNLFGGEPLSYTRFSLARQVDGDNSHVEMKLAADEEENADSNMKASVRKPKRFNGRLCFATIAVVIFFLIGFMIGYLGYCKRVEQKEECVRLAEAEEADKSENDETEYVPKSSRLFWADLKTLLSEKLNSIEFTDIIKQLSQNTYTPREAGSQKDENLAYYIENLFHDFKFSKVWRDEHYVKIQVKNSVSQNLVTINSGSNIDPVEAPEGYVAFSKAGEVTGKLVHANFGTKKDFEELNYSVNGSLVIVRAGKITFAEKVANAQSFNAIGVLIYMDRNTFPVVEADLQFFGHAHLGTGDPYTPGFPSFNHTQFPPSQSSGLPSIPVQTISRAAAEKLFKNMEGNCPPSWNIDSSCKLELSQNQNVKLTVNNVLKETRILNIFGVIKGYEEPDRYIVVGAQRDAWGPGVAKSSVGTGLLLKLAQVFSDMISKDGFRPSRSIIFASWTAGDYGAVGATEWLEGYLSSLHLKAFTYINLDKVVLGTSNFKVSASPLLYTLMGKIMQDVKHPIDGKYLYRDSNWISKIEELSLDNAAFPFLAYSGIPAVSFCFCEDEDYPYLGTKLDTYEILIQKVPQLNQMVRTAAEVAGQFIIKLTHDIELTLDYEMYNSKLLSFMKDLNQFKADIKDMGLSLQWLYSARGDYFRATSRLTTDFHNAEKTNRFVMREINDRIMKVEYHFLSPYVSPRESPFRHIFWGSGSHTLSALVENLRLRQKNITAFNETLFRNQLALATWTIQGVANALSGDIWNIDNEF
Method: FIG. 4. Competition of FITC-Tf binding to cell surfaces by Ce6-Tf. Transferrin solvent, human Ce6-Tf, or native human Tf were added to Rat MTLn3 mammary adenocarcinoma cell monolayers equilibrated to 4° C. The final concentration of both transferrins was 1 mg/ml. FITC- human Tf was then added to all wells at 100 μg/ml. After a 2 h incubation, cells were washed, lysed, electrophoresed, blotted, and examined for FITC content by incubation with anti-FITC and an HRP-conjugated second antibody, followed by ECL. A strong band at 70,000 Kd was seen from cell lysates which received FITC-Tf only (lanes 4 and 5), indicating FITC-Tf binding to the cells. […] Lanes 1-3 were loaded with known amounts of pure FITC-Tf, for standardization. An image of the ECL X-ray film is shown.
Competition binding: This measures the ability of a material to inhibit the binding of FITC-transferrin to cell surfaces. FITC-Tf bound to the cells is detected by Western blotting of cell lysates and specific antibody-based detection of FITC in those. Rat MTLn3 mammary adenocarcinoma cells were grown to confluence in 12 well plates using media consisting of ocMM containing 5% v/v fetal bovine serun (FBS). […] Lysate protein was determined using the BCA assay (Pierce Chemical). […] The blot was blocked and FITC-TF was detected by treatment with rabbit anti-FITC then with anti-rabbit IG-HRP followed by ECL using an HRP substrate.

[3] = tested on: Human MCF7 breast cancer cells; test: Cell killing assay, protocol B (serum-containing, one-day exposure); assay type: cell-based; conditions: MCF7, 7.5 to 30 ug/ml
Method: FIG. 7. […] Cells were plated in 24 well plates and grown to confluency. On day one, media was changed and increasing levels of Ce6-Tf were added to test wells to a final concentration from 7.5 to 30 ug/ml. Native Tf was added to control wells at 30 ug/ml. On day 2, media in all wells was changed to that without added Ce6-Tf or Tf On days 2, 3, and 4, cells were exposed to light from an X-ray film box for 15 min. Media was changed each day. On day five, all cells were fixed, stained, and quantitated using the crystal violet stain assay. Stained cell numbers were evaluated using a Bio-Rad Multi-imager. Images of the stained plates are shown in A. The results of image analysis are shown in B, where ODU/mm2 correlates with cell number. […]
(§1) With both assay methods, two plates for each line to be tested were plated and treated identically. […] On the fourth day, the cells were quantitated using a crystal violet stain assay: wells were drained and washed 4 times with 2 ml PBS; cells were fixed with 1 ml 5% v/v glutaraldehyde (in PBS) at 25° C. for 20 min.; wells were washed 4 times with 2 ml distilled water and stained with 1 ml of a 1:1 (v:v) mixture of 0.2% (w/v) crystal violet and 100 mM CAPS (pH 9.0). […] After drying, cell density was determined using a Bio-Rad Multiimager, where ODU/mm2 correlates with cell number.

[4] = tested on: MTLn3 cells; test: Transferrin competition of cell killing; assay type: cell-based, rat; conditions: MTLn3, 30 ug/ml Ce6Tf plus 500 or 1,000 μg/ml native Tf, light
Method: (§2) FIG. 8. A: Effect of Ce6 alone on the viability of Rat MTLn3 cells. Cells were tested as per method B outlined in the cell killing procedure description. Confluent cells in ∝MEM containing 5% FBS were exposed to the indicated concentrations of Ce6, Ce6-Tf, or Tf alone. One day later, media was changed to that without added Ce6-Tf or Tf, and all cells were exposed to light for 15 min. This was repeated on days two and three. Cells were then fixed and stained with Coomassie blue. An image of the stained wells is shown. […] B: Effect of excess Tf on the killing effect of Ce6-Tf Cells were set up similarly as above, except that treatments consisted of Ce6-Tf, or Ce6-Tf in conjunction with 500 or 1,000 μg/ml native Tf. Light exposure, media changes, and cell staining were carried out as in A. An image of the stained wells is shown.
Transferrin competition of cell killing: These were performed to ensure that Ce6-Tf's cell killing effect was due to the function of the transferrin ligand: that the light-induced killing effect could be neutralized with excess native Tf Method B. from above was used. Confluent cultures of MTLn3 cells in 24 well plates were treated with 30 ug/ml of Ce6Tf. […] Light-induced killing assays were continued and cells quantitated as stated above in method B.

[5] = tested on: Rat MTLn3 mammary adenocarcinoma cells; test: Cell killing assay, protocol A (serum-free, continuous exposure); assay type: cell-based; conditions: 1.25 to 5.0 μg/ml
Method: FIG. 5. […] This was a continuous exposure, serum-free assay performed using protocol A described in the cell killing section. Cells were plated in 24 well plates and grown to confluency in ∝MEM containing 5% v/v FBS. On day one, media was changed to ∝MEM only and increasing levels of Ce6-Tf were added to test wells to a final concentration from 1.25 to 5.0 μg/ml. Native Tf was added to control wells at 5.0 μg/ml. On days 2, 3, and 4, cells were exposed to light from an X-ray film box for 15 min. Media and all Tf was changed each day. On day five, all cells were quantitated using the crystal violet stain assay. Images of the stained plates are shown in A. Stained cell numbers were evaluated using a Bio-Rad Multi-imager. The results of image analysis are shown in B, where ODU/mm2 correlates with cell number. […]
as §1

[6] = tested on: NRK cells; test: Cell killing assay, protocol B (serum-containing, one-day exposure); assay type: cell-based, rat
Method: (§3) FIG. 6. […] This was a one-day exposure, serum-containing assay performed using protocol B described in the cell killing section. Cells were plated in 24 well plates and grown to confluency. On day one, media was changed and increasing levels of Ce6-Tf were added to test wells to a final concentration from 7.5 to 30 ug/ml. Native Tf was added to control wells at 30 ug/ml. On day 2, media was changed to that without added Ce6-Tf or Tf. On days 2, 3, and 4, cells were exposed to light from an X-ray film box for 15 min. Media was changed each day. On day five, all cells were fixed, stained, and quantitated using the crystal violet stain assay. Stained cell numbers were evaluated using a Bio-Rad Multi-imager. Images of the stained plates are shown in A and B. The results of image analysis are shown in C and D, where ODU/mm2 correlates with cell number.
(§4) B: Serum-containing, one day exposure assays. For these, serum was maintained, to emulate in vivo conditions where excess endogenous normal transferrin would be present. In addition, the Ce6-Tf exposure was limited to I day to emulate a one time Ce6-Tf injection. Target cells were grown to confluence in 24 well plates. On the day of the assay, media in all wells was replaced with 1 ml of fresh serum-containing media and increasing levels of Ce6-Tf added to test wells. Native human holo-Tf was added, at the highest Ce6-Tf dose, to control wells. One day after Tf addition, media in all plates was changed to normal culture media (without Ce6Tf).
as §1

[7] = tested on: MTLn3 cells; test: as above; assay type: cell-based, rat
Method: as §3, §2, §4
With both assay methods, two plates for each line to be tested were plated and treated identically. One day after Ce6-Tf addition, test plates were exposed to the light from an X-ray film box for 15 min.: the box was placed horizontally and the culture plates placed directly on the cover glass. The parallel plate from a given line was kept in the dark. The light treatment was repeated for 3 days. Media was changed (with [A] or without [B] added Ce6-Tf ) each day, to maintain cell viability. On the fourth day, the cells were quantitated using a crystal violet stain assay: wells were drained and washed 4 times with 2 ml PBS; cells were fixed with 1 ml 5% v/v glutaraldehyde (in PBS) at 25° C. for 20 min.; wells were washed 4 times with 2 ml distilled water and stained with 1 ml of a 1:1 (v:v) mixture of 0.2% (w/v) crystal violet and 100 mM CAPS (pH 9.0). Wells were drained and washed 4 times with 2 ml distilled water. After drying, cell density was determined using a Bio-Rad Multiimager, where ODU/mm2 correlates with cell number.
Effect of Ce6 alone: To determine if Ce6 alone, if added in appropriate concentrations, would induce cell death. […]

| Competition of FITC-Tf binding to cell surfaces [2] | Substance | Effect on cell growth (cell number, crystal violet A590) [1] | Cell numbers, plates kept in the dark ([3]; no light) | Cell killing with light exposure (cell number, ODU/mm2) ([3]; one-day exposure, light 15 min on days 2, 3, 4) | Killing effect of Ce6-Tf in presence of excess native Tf [4] | Cell killing with light exposure (cell number, ODU/mm2) ([5]; light 15 min on days 2, 3, 4) | Cell numbers, plates kept in the dark ([5]; no light) | Change in cell numbers at the 15 ug/ml dose with light ([6]; 15 ug/ml, light) | Cell numbers, plates maintained in the dark ([6]; 7.5 to 30 ug/ml, no light) | Cell killing with light exposure (cell number, ODU/mm2) ([6]; 7.5 to 30 ug/ml, one-day exposure, light 15 min on days 2, 3, 4) | Change in cell numbers at the 15 ug/ml dose with light ([7]; MTLn3, 15 ug/ml, light) | Cell numbers, plates maintained in the dark ([7]; MTLn3, 7.5 to 30 ug/ml, no light) | Cell killing with light exposure (cell number, ODU/mm2) ([7]; MTLn3, 7.5 to 30 ug/ml, one-day exposure, light 15 min on days 2, 3, 4) | Light-induced cell death ([7]; initially present at 0.43 uM (30 ug/ml)) | Cell killing effect of Ce6 alone with light ([7]; MTLn3, method B, free Ce6 4.3 uM (2.5 μg/ml), light 15 min on three days) |
| --- | --- | --- | --- | --- | --- | --- | --- | --- | --- | --- | --- | --- | --- | --- | --- |
| competed out the FITC-Tf | Native Tf: Un-conjugated iron-saturated human transferrin (Sigma Chemical), used as control | seen to rise | – | – | – | – | – | – | – | – | – | – | – | – | – |
| competed out the FITC-Tf | chlorin e6-transferrin [Ce6-Tf] | similar, albeit slightly lower rise | no loss of cell numbers | light-dependent killing | diminished the killing effect | light-dependent killing | no loss of cell numbers | did not | no loss of cell numbers | light-dependent killing | showed a decrease in cell numbers | no loss of cell numbers | light-dependent killing | very active | – |
| – | chlorin e6 [Ce6, reference compound] | – | – | – | – | – | – | – | – | – | – | – | – | – | no cell killing effect |
